SMILES strings stand for the structures. pIC50: −log10 of the molar value. Marks after values point to notes of the source that are not given here. Where only a bound is given, the exact number is not on record here.

By pIC50 is commonly meant the IC50 on a negative log10 scale, so that one unit is a factor of ten.

Series [1] deals with T1, PAR2 (HT-29 cells, SLIGKV activation) (Homo sapiens, UniProt P55085).
T1 construct: host or cells: HT-29 cells
T1 sequence (P55085 26-397): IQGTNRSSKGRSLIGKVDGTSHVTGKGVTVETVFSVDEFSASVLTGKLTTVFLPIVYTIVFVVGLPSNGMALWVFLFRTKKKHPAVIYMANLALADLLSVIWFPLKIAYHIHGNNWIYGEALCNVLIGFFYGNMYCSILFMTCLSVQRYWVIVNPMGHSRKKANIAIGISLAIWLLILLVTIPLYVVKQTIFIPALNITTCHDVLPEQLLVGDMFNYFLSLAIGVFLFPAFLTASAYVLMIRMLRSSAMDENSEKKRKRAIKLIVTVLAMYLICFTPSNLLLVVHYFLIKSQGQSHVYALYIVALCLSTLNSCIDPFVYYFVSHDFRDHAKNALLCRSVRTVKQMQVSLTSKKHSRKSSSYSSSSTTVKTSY
The series can be described thus: Ca FLIPR TETRA assay, ANTAGONIST mode, stimulation with 8 μM SLIGKV. In kind it is cell-based. Conditions: HT-29 cells, antagonist mode, stimulation with 8 μM SLIGKV. The method in brief: (§1)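 Antagonist-mode FLIPR Tetra Ca2+ readout: after 30 min r.t. compound pre-incubation, HT-29 cells are challenged with trypsin (3.1 U/mL final), SLIGKV (8 μM), thrombin (1 U/mL) or UTP (0.6 μM). Cells were plated overnight in 1% FBS medium and dye-loaded with Calcium 5; an initial read checks compound agonism.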

Series [2] addresses T2, PAR2 (HT-29 cells, trypsin activation) (Homo sapiens, UniProt P55085).
T2 construct: host or cells: HT-29 cells
T2 sequence (P55085 26-397): T1 sequence (P55085 26-397)
As to the kind of experiment: Ca FLIPR TETRA assay, ANTAGONIST mode, stimulation with 3.1 U/mL trypsin. The format is cell-based. Conditions: HT-29 cells, antagonist mode, stimulation with 3.1 U/mL trypsin. The essentials:
as §1

Series [3] deals with Thrombin-stimulated Ca2+ response in HT-29 cells. The series can be described thus: Ca FLIPR TETRA assay, ANTAGONIST mode, stimulation with 1 U/mL Thrombin. The format is cell-based, human. The note with it: Homo sapiens; HT-29 cells, antagonist mode, stimulation with 1 U/mL Thrombin. The method in brief:
as §1

Series [4] relates to UTP-stimulated Ca2+ response in HT-29 cells. The series can be described thus: Ca FLIPR TETRA assay, ANTAGONIST mode, stimulation with 0.6 μM UTP. In kind it is cell-based, human. Conditions: Homo sapiens; HT-29 cells, antagonist mode, stimulation with 0.6 μM UTP. The essentials: as §1
The nature of series [5]: In vivo rat pharmacokinetics (intravenous and oral). The note with it: plasma; for clearance: intravenous 0.5 to 1 mg/kg, read-out: Clp; for Vd: intravenous, read-out: Vss; for bioavailability: oral by gavage; for half-life: read-out: T ½ (converted). As for the experimental part:
Example 61: Protocol for Testing PAR2 Compounds In Vivo Rat Pharmacokinetics Experiments
Compounds delivered by intravenous route were formulated using a solution formulation consisting of 5% N-methylpyrrolidone 10% Vitamin E-TPGS and 85% water (v/v/) or a solution formulation consisting of 25% N-methylpyrrolidone 35% polyethylene glycol 400 and 40% water (v/v/). Intravenous formulations were administered by a bolus injection (over approximately 10 seconds) using a hypodermic needle attaches to a syringe (tail vein). The dose volume was varied from 1 to 2 mL/kg and the dose was varied from 0.5 to 1 mg/kg. Compounds delivered orally were formulated as a solution formulation consisting of 5% N-methylpyrrolidone 10% Vitamin E-TPGS and 85% water (v/v/) or as fine suspension using a cellulose derivative suspending agent with or without the addition of a wetting agent/surfactant. Milling of large particles was performed as needed to reduce particle size using focused electroacoustic milling, homogenization or low energy media milling. A spray-dried solid dispersion was prepared for key compounds using 1:1 combination with cellulose derivatives. Test compounds were administered orally by gavage using a gavage plastic needle attached to a syringe. The dose volume was varied from 5 to 10 mL/kg and the dose was varied from 1 to 600 mg/kg.
Rats were bled by venipuncture (jugular vein) and the samples were collected into tubes containing K3EDTA. The tubes were placed on wet ice until processed. The samples were centrifuged for approximately 10 minutes (at approximately 4° C.) within approximately 30 minutes of collection to prepare plasma or diluted in citrate buffer (1:3) and stored frozen (approximately −30° C.). Thawed plasma or whole blood samples were extracted by protein precipitation using an organic solvent followed by centrifugation. The supernatants were separated by high-performance liquid chromatography coupled to mass spectrometry detection. A calibration curve was prepared using reference standard compounds spiked into either blank plasma or whole blood matrices and extracted similarly to unknown samples. Pharmacokinetic parameters were calculated using non-compartmental analysis.

In series [6] the test system is carrageenan-induced paw edema. The series can be described thus: Rat carrageenan-induced paw edema model. The note with it: given before carrageenan challenge. The format is in vivo, Sprague Dawley rats. Here is the method:
Male Sprague Dawley rats and BALB/c mice were housed in groups in a temperature controlled room and were acclimatized in the animal facility for at least three days prior to use. Experiments were performed during the light phase of the cycle. Animals have food and water ad libitum.
Example 63: Rat Carrageenan-Induced Paw Edema Model
Peripheral inflammation was induced by intra-plantar administration of 100 ul of a 1% w/volume (in saline) carrageenan solution under isoflurane anesthesia. The degree of swelling was assessed using the plethysmometer at 2-3-4-5-6 h after carrageenan injection. Test compound or vehicle (0.5% MC/0.1% SDS) was systemically administered at the indicated doses in a volume of 5 mL/kg either I-3 hour before carrageenan challenge (Table 9) or 2 hours post carrageenan challenge (Table 10).
Data are expressed as the mean % effect. Statistical significance was assessed using t-test for comparison between naive and inflamed rats, and one-way ANOVA followed by post-hoc comparison test for overall drug effectiveness. A difference between groups is considered significant with a p value of <0.05. *, p<0.05; **, p<0.01; ***, p<0.001 vs. vehicle.
On the technique in general: Carrageenan injected into the paw causes an acute inflammation.

For `CC(C)(C)c1cc(-c2ccc(F)cc2)nn2cc(C(=O)N3CCN(C(=O)C4CC(O)(C(F)(F)F)C4)CC3(C)C)nc12` (stereo not shown) [Compound I-199], the pIC50 in series [1] is 10.00; in series [2] it was 9.70; in series [3], less than 6.00; in series [4], less than 6.00. Also, in series [5], the clearance worked out at 0.192 L/h/kg. In series [5], the Vd was found to be 4.2 L/kg. Also, in series [5], the bioavailability stood at 67%. In series [5], the half-life is 18.1 h. In addition, the “% inhibition of carrageenan induced paw edema” value (“% inhibition” for short) is on record as 14% in series [6] (dose 7.5 mg/kg) and 52*** % in series [6] (dose 20 mg/kg).
Consider `CC(C)(C)c1cc(-c2ccc(F)cc2)nn2cc(C(=O)N3CCN(C(=O)c4c[nH]cn4)CC3(C)C)nc12` [Compound I-232], for which the pIC50 in series [1] is 9.00. Moreover, the pIC50 in series [2] is 8.85. Besides, the pIC50 in series [3] is 6.05. The negative-log IC50 (pIC50) in series [4] is 6.05. Also, in series [5], the clearance came to 1.01 L/h/kg, the Vd is 3.3 L/kg, the bioavailability stood at 75% and the half-life was 2.5 h. Moreover, the “% inhibition” value in series [6] (dose 10 mg/kg) is reported as 19* %.
As to `CC(C)c1cc(-c2ccc(C(F)(F)F)cc2)nn2cc(C(=O)N3CCNC(=O)C3(C)C)nc12` [Compound I-241], the negative-log IC50 (pIC50) in series [1] is 8.77; in series [2] it was 8.70; in series [3] it was less than 6.00; in series [4], less than 6.00. Further, in series [6] (dose 7 mg/kg), the “% inhibition” value is on record as 17** %.
On to `Cn1nnc(N2CCN(C(=O)c3cn4nc(-c5ccc(F)cc5)cc(C(C)(C)C)c4n3)C(C)(C)C2=O)n1` [Compound I-249], for which the negative logarithm of the IC50 (pIC50) in series [1] is 9.22; in series [2], 9.15; in series [3], less than 6.00; in series [4], less than 6.00. The “% inhibition” value is recorded as 49*** % in series [6] (dose 10 mg/kg) and 26* % in series [6] (dose 30 mg/kg).
`CC(C)(C)c1cc(-c2ccc(C(F)(F)F)cc2)nn2cc(C(=O)N3CCNC(=O)C3(C)C)nc12` [Compound I-283, 4-[8-tert-butyl-6-[4-(trifluoromethyl)phenyl]imidazo[1,2-b]pyridazine-2-carbonyl]-3,3-dimethyl-piperazin-2-one]: the pIC50 in series [1] was 8.66. The pIC50 in series [2] was 8.70. Besides, the pIC50 in series [3] was less than 6.00. Also, the negative-log IC50 (pIC50) in series [4] is less than 6.00. Further, in series [5], the clearance turned out to be 0.0642 L/h/kg, the Vd turned out to be 6.82 L/kg, the bioavailability stood at 76% and the half-life is 77.9 h. The “% inhibition” value in series [6] (dose 20 mg/kg) is 19* %.
Consider `Cc1nnc(C(=O)N2CCN(C(=O)c3cn4nc(-c5ccc(F)cc5)cc(C(C)(C)C)c4n3)C(C)(C)C2)o1` [Compound I-288], for which the pIC50 in series [1] is 8.92; in series [2], 8.74; in series [3], 6.11; in series [4], less than 6.00. In series [6] (dose 10 mg/kg), the “% inhibition” value is 48*** %.
For the molecule `Cc1cc(C(=O)N2CCN(C(=O)c3cn4nc(-c5ccc(F)cc5)cc(C(C)(C)C)c4n3)C(C)(C)C2)[nH]n1` [Compound I-291], the negative-log IC50 (pIC50) in series [1] is 9.70; in series [2], 9.52; in series [3] it was 6.12; in series [4], 6.17. In series [6] (dose 5 mg/kg), the “% inhibition” value is reported as 37** %.
For the molecule `CC(C)(C)c1cc(-c2ccc(F)cc2)nn2cc(C(=O)N3CCN(c4cn[nH]c4)C(=O)C3(C)C)nc12` [Compound I-310], the pIC50 is 9.22 in series [1], 9.00 in series [2], less than 6.00 in series [3] and 6.06 in series [4]. The “% inhibition” value in series [6] (dose 5 mg/kg) is recorded as 25** %.
In the case of `CC(C)(C)c1cc(-c2ccc(C(F)(F)F)cc2)nn2cc(C(=O)N3CCN(c4cn[nH]c4)C(=O)C3(C)C)nc12` [Compound I-366], the pIC50 in series [1] was 8.66; in series [2], 8.60; in series [3], less than 6.00; in series [4], less than 6.00. Further, the “% inhibition” value in series [6] (dose 20 mg/kg) is 43** %.
As for `Cc1cc(-c2cc(C(C)(C)C)c3nc(C(=O)N4CCN(c5cn[nH]c5)C(=O)C4(C)C)cn3n2)ccc1F` [Compound I-417], the pIC50 is 8.60 in series [1], 8.49 in series [2], less than 6.00 in series [3] and less than 6.00 in series [4]. In addition, in series [6] (dose 20 mg/kg), the “% inhibition” value is given as 32** %.
As for `CC(C)(C)c1cc(-c2ccc(Cl)cc2)nn2cc(C(=O)N3CCN(C(=O)[C@H]4C[C@@](C)(O)C4)CC3(C)C)nc12` [Compound I-421], the negative logarithm of the IC50 (pIC50) in series [1] is 9.52; in series [2], 9.70; in series [3], less than 6.00; in series [4], less than 6.00. Further, in series [5], the clearance stood at 0.369 L/h/kg. The Vd in series [5] was found to be 3.07 L/kg. The bioavailability in series [5] amounted to 189%. In addition, the half-life in series [5] is 9.62 h. The “% inhibition” value is given as 11% in series [6] (dose 1 mg/kg) and −32** % in series [6] (dose 10 mg/kg).
Regarding `CC(C)(C)c1cc(C2CCC(F)(F)CC2)nn2cc(C(=O)N3CCN(c4cn[nH]c4)C(=O)C3(C)C)nc12` [Compound I-429], the negative-log IC50 (pIC50) in series [1] is 8.62; in series [2] it was 8.48; in series [3] it was less than 6.00; in series [4], less than 6.00. For the same molecule, the “% inhibition” value in series [6] (dose 20 mg/kg) was 43** %.
As to `Cc1nc(C(=O)N2CCN(C(=O)c3cn4nc(-c5ccc(Cl)cc5)cc(C(C)(C)C)c4n3)C(C)(C)C2)n[nH]1` [Compound I-436, [8-tert-butyl-6-(4-chlorophenyl)imidazo[1,2-b]pyridazin-2-yl]-[2,2-dimethyl-4-(5-methyl-1H-1,2,4-triazole-3-carbonyl)piperazin-1-yl]methanone], the negative logarithm of the IC50 (pIC50) is 9.52 in series [1], 9.40 in series [2], 4.96 in series [3] and 5.44 in series [4]. For the same molecule, in series [5], the clearance came to 0.253 L/h/kg. Further, the Vd in series [5] was found to be 2.05 L/kg. The bioavailability in series [5] stood at 77%. Moreover, the half-life in series [5] was 7.5 h. In addition, the “% inhibition” value in series [6] (dose 1 mg/kg) was −17* %; in series [6] (dose 30 mg/kg), 36** %.
In the case of `Cc1n[nH]c(C(=O)N2CCN(C(=O)c3cn4nc(-c5ccc(F)cc5)cc(C(C)(C)C)c4n3)CC2)n1` [Compound I-525], the negative logarithm of the IC50 (pIC50) in series [1] is 6.94; in series [2] it was 6.61; in series [3], less than 6.00; in series [4], less than 6.00. Moreover, the “% inhibition” value in series [6] (dose 50 mg/kg) came out at 9%.

For the origin of these results see patent publication US20190119282A1, “IMIDAZOPYRIDAZINES USEFUL AS INHIBITORS OF THE PAR-2 SIGNALING PATHWAY” (Vertex Pharmaceuticals Incorporated, priority 2013, published 2019).
